Holding throughout (format): biochemical
The target of one test is T1, human IP6K1 (Homo sapiens, UniProt Q92551).
T1 construct: human IP6K1 (1-441) gene; GST; made in house; host or cells: Sf-9 insect cells
Description: IP6K enzyme inhibitory assay (ADP-Glo Kinase Assay), human IP6K1. The note with it: compound concentration 0.1 μM; for inhibition at 0.1 µM: read-out: ADP-Glo method inhibitory rate (%) human IP6K1. As to the method: (§1) IP6K Enzyme Inhibitory Assay
(§2) Human IP6K3 enzyme was prepared by transducing human IP6K3 (1-410) gene into BL21 (DE3) Escherichia coli and purifying by Ni-NTA (nickel-nitrilotriacetic acid) affinity column. […] The enzymes were used after preservation at −70° C. The IP6K enzyme inhibitory activity of the test compound was measured by the following experiment method and using ADP-Glo™ Kinase Assay (manufactured by Promega). A test compound diluted with an assay buffer (20 mM HEPES (pH 7.5), 6 mM MgCl2, 0.01% Tween-20, 1 mM DTT) was first added by 2 μL to a 384 well plate. […] The IP6K enzyme solution diluted with the assay buffer was added by 2 μL to start the enzyme reaction. Incubation was performed at room temperature for a given time (120 min for rat IP6K3 alone, 60 min for others). After incubation at room temperature, ADP-Glo solution prepared according to the protocol of Promega was added by 3 μL to the 384 well plate and reacted at room temperature for 30 min. Thereafter, Kinase-Detection solution was added by 6 μL to the 384 well plate and reacted at room temperature for 60 min. After the reaction, the luminescence intensity was measured by a plate reader Envision (manufactured by PerkinElmer).

In another test the target is T2, human IP6K2 (Homo sapiens, UniProt Q9UHH9).
T2 construct: human IP6K2 (1-426) gene; GST; made in house; host or cells: Sf-9 insect cells
T2 sequence (Q9UHH9 1-426): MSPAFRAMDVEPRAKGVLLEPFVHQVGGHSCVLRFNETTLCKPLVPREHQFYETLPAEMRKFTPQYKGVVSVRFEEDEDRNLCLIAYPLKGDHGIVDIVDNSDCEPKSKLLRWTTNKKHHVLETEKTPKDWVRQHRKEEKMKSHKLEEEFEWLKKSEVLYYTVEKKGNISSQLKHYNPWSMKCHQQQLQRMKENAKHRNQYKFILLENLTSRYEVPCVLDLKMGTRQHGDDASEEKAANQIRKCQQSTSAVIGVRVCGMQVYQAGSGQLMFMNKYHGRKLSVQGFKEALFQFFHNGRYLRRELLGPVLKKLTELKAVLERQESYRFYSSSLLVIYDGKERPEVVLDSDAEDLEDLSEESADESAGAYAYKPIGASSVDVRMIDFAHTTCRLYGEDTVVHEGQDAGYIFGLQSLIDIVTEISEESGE
Description: IP6K enzyme inhibitory assay (ADP-Glo Kinase Assay), human IP6K2. As to conditions: compound concentration 0.1 μM; for inhibition at 0.1 µM: read-out: ADP-Glo method inhibitory rate (%) human IP6K2. As to the method:
as §1, §2

The next test deals with T3, human IP6K3 (Homo sapiens, UniProt Q96PC2).
T3 construct: human IP6K3 (1-410) gene; made in house; host or cells: BL21 (DE3) Escherichia coli
T3 sequence (Q96PC2 1-410): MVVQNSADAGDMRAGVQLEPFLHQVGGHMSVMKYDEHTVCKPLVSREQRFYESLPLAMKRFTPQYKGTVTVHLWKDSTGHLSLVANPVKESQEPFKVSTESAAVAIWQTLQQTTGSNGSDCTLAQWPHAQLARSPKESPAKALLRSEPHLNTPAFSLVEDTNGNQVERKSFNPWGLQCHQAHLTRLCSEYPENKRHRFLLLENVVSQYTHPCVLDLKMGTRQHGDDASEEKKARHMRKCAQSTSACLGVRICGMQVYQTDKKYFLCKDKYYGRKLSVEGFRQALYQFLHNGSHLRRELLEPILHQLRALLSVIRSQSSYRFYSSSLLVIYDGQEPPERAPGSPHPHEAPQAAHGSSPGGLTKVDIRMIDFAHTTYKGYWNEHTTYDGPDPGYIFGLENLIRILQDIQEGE
Briefly: IP6K enzyme inhibitory assay (ADP-Glo Kinase Assay), human IP6K3. As to conditions: compound concentration 0.1 μM; for inhibition at 0.1 µM: read-out: ADP-Glo method inhibitory rate (%) human IP6K3. As to the method: as §1, §2

T1 sequence (Q92551 whole entry): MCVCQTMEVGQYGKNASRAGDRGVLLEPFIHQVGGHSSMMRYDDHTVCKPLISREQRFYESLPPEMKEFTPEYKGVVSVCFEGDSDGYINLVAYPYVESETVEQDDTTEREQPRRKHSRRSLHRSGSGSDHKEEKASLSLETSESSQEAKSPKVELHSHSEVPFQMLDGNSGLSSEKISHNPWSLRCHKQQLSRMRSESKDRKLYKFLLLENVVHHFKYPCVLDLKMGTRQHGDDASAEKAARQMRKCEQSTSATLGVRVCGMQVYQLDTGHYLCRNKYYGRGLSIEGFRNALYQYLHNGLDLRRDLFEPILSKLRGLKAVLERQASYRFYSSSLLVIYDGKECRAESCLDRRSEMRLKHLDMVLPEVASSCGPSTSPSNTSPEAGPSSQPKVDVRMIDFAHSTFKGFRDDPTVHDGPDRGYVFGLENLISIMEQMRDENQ

Take `O=C(O)c1ccc2c(c1)[C@]1(CC[C@@H](Oc3ncc(C4CC4)cc3C(F)(F)F)CC1)C(=O)N2` [Example 31, (1r,4r)-4-((5-cyclopropyl-3-(trifluoromethyl)pyridin-2-yl)oxy)-2′-oxo-1′,2′-dihydrospiro[cyclohexane-1,3′-indole]-5′-carboxylic acid]: the inhibition at 0.1 µM was 101% at human IP6K1, 101% on human IP6K2 and 100% on human IP6K3.

Consider `Cc1ncccc1O[C@H]1CC[C@@]2(CC1)C(=O)Nc1ccc(C(=O)O)cc12` [Example 32, (1r,4r)-4-((2-methylpyridin-3-yl)oxy)-2′-oxo-1′,2′-dihydrospiro[cyclohexane-1,3′-indole]-5′-carboxylic acid], for which the values for the inhibition at 0.1 µM at human IP6K1, on human IP6K2 and at human IP6K3 were 63%, 67% and 88%, respectively.

Take `Cc1cncc(O[C@H]2CC[C@@]3(CC2)C(=O)Nc2ccc(C(=O)O)cc23)c1` [Example 33, (1r,4r)-4-((5-methylpyridin-3-yl)oxy)-2′-oxo-1′,2′-dihydrospiro[cyclohexane-1,3′-indole]-5′-carboxylic acid]: the inhibition at 0.1 µM at human IP6K1 is 37%; on human IP6K2, 40%; on human IP6K3 it was 74%.

On to `Cc1ccc(O[C@H]2CC[C@@]3(CC2)C(=O)Nc2ccc(C(=O)O)cc23)cn1` [Example 34, (1r,4r)-4-((6-methylpyridin-3-yl)oxy)-2′-oxo-1′,2′-dihydrospiro[cyclohexane-1,3′-indole]-5′-carboxylic acid], for which the values for the inhibition at 0.1 µM at human IP6K1, on human IP6K2 and on human IP6K3 were 63%, 76% and 91%, respectively.

In the case of `Cc1ccc(O[C@H]2CC[C@@]3(CC2)C(=O)Nc2ccc(C(=O)O)cc23)c(C)n1` [Example 35, (1r,4r)-4-((2,6-dimethylpyridin-3-yl)oxy)-2′-oxo-1′,2′-dihydrospiro[cyclohexane-1,3′-indole]-5′-carboxylic acid], the inhibition at 0.1 µM at human IP6K1 was determined as 82%; on human IP6K2, 96%; at human IP6K3, 98%.

As to `Cc1cc(C)c(O[C@H]2CC[C@@]3(CC2)C(=O)Nc2ccc(C(=O)O)cc23)cn1` [Example 36, (1r,4r)-4-((4,6-dimethylpyridin-3-yl)oxy)-2′-oxo-1′,2′-dihydrospiro[cyclohexane-1,3′-indole]-5′-carboxylic acid], the inhibition at 0.1 µM at human IP6K1 was found to be 72%; on human IP6K2, 92%; at human IP6K3 it was 95%.

`O=C(O)c1ccc2c(c1)[C@]1(CC[C@@H](Oc3cnc4c(c3)CCCO4)CC1)C(=O)N2` [Example 37, (1r,4r)-4-(3,4-dihydro-2H-pyrano[2,3-b]pyridin-6-yloxy)-2′-oxo-1′,2′-dihydrospiro[cyclohexane-1,3′-indole]-5′-carboxylic acid]: the inhibition at 0.1 µM on human IP6K1 is 51%; on human IP6K2 it was 50%; on human IP6K3, 82%.

Take `Cc1cc(C)nc(O[C@H]2CC[C@@]3(CC2)C(=O)Nc2ccc(C(=O)O)cc23)n1` [Example 38, (1r,4r)-4-((4,6-dimethylpyrimidin-2-yl)oxy)-2′-oxo-1′,2′-dihydrospiro[cyclohexane-1,3′-indole]-5′-carboxylic acid]: the inhibition at 0.1 µM stood at 55% at human IP6K1, 47% at human IP6K2 and 86% at human IP6K3.

Take `Cc1nc(O[C@H]2CC[C@@]3(CC2)C(=O)Nc2ccc(C(=O)O)cc23)nc(C)c1Cl` [Example 39, (1r,4r)-4-((5-chloro-4,6-dimethylpyrimidin-2-yl)oxy)-2′-oxo-1′,2′-dihydrospiro[cyclohexane-1,3′-indole]-5′-carboxylic acid]: the inhibition at 0.1 µM amounted to 80% on human IP6K1, 74% on human IP6K2 and 95% on human IP6K3.

`Cc1cc(O[C@H]2CC[C@@]3(CC2)C(=O)Nc2ccc(C(=O)O)cc23)nc(C)n1` [Example 40, (1r,4r)-4-((2,6-dimethylpyrimidin-4-yl)oxy)-2′-oxo-1′,2′-dihydrospiro[cyclohexane-1,3′-indole]-5′-carboxylic acid]: the inhibition at 0.1 µM at human IP6K1 was 14%; at human IP6K2, 18%; at human IP6K3, 49%.

Regarding `Cc1ccccc1O[C@H]1CC[C@@]2(CC1)C(=O)Nc1ccc(C(=O)O)cc12` [Example 41, (1r,4r)-4-(2-methylphenoxy)-2′-oxo-1′,2′-dihydrospiro[cyclohexane-1,3′-indole]-5′-carboxylic acid], the inhibition at 0.1 µM on human IP6K1 was 93%; on human IP6K2 it was 93%; at human IP6K3, 98%.

On to `Cc1cccc(O[C@H]2CC[C@@]3(CC2)C(=O)Nc2ccc(C(=O)O)cc23)c1` [Example 42, (1r,4r)-4-(3-methylphenoxy)-2′-oxo-1′,2′-dihydrospiro[cyclohexane-1,3′-indole]-5′-carboxylic acid], for which the inhibition at 0.1 µM amounted to 81% at human IP6K1, 90% on human IP6K2 and 97% at human IP6K3.

As to `Cc1ccc(O[C@H]2CC[C@@]3(CC2)C(=O)Nc2ccc(C(=O)O)cc23)cc1` [Example 43, (1r,4r)-4-(4-methylphenoxy)-2′-oxo-1′,2′-dihydrospiro[cyclohexane-1,3′-indole]-5′-carboxylic acid], the inhibition at 0.1 µM was 98% at human IP6K1, 99% at human IP6K2 and 100% on human IP6K3.

Regarding `N#Cc1ccccc1O[C@H]1CC[C@@]2(CC1)C(=O)Nc1ccc(C(=O)O)cc12` [Example 44, (1r,4r)-4-(2-cyanophenoxy)-2′-oxo-1′,2′-dihydrospiro[cyclohexane-1,3′-indole]-5′-carboxylic acid], the inhibition at 0.1 µM on human IP6K1 is 88%; on human IP6K2 it was 83%; at human IP6K3, 94%.

Consider `N#Cc1ccc(O[C@H]2CC[C@@]3(CC2)C(=O)Nc2ccc(C(=O)O)cc23)cc1` [Example 45, (1r,4r)-4-(4-cyanophenoxy)-2′-oxo-1′,2′-dihydrospiro[cyclohexane-1,3′-indole]-5′-carboxylic acid], for which the inhibition at 0.1 µM is 96% at human IP6K1, 93% at human IP6K2 and 97% on human IP6K3.

With `Cc1ccc(O[C@H]2CC[C@@]3(CC2)C(=O)Nc2ccc(C(=O)O)cc23)cc1C` [Example 46, (1r,4r)-4-(3,4-dimethylphenoxy)-2′-oxo-1′,2′-dihydrospiro[cyclohexane-1,3′-indole]-5′-carboxylic acid], the inhibition at 0.1 µM at human IP6K1 stood at 97%; on human IP6K2, 98%; at human IP6K3, 99%.

As to `Cc1ccc(O[C@H]2CC[C@@]3(CC2)C(=O)Nc2ccc(C(=O)O)cc23)c(C)c1` [Example 47, (1r,4r)-4-(2,4-dimethylphenoxy)-2′-oxo-1′,2′-dihydrospiro[cyclohexane-1,3′-indole]-5′-carboxylic acid], at human IP6K1, the “ADP-Glo method inhibitory rate (%) human IP6K1” value is given as 99%. Also, the “ADP-Glo method inhibitory rate (%) human IP6K2” value on human IP6K2 was 96%. Further, on human IP6K3, the “ADP-Glo method inhibitory rate (%) human IP6K3” value was 99%.

On to `Cc1cc(C)cc(O[C@H]2CC[C@@]3(CC2)C(=O)Nc2ccc(C(=O)O)cc23)c1` [Example 48, (1r,4r)-4-(3,5-dimethylphenoxy)-2′-oxo-1′,2′-dihydrospiro[cyclohexane-1,3′-indole]-5′-carboxylic acid], for which the figures for the inhibition at 0.1 µM on human IP6K1, on human IP6K2 and on human IP6K3 were 86%, 91% and 97%, respectively.

These data come from patent US10968178B2, “IP6K inhibitors” (TAKEDA PHARMACEUTICAL COMPANY LIMITED, priority 2017, dated 2021).
